From ChEMBL document CHEMBL3045090, “Synthesis, insecticidal activity, and structure-activity relationship of trifluoromethyl-containing phthalic acid diamide structures” (2010)
In brackets after ≈: the same amount, converted by molar mass.

Key:
Format in all cases: functional
[1] = tested on: Plutella xylostella; assay: Insecticidal activity against third-instar larval stage of Plutella xylostella (diamondback moth) in cabbage leaves assessed as mortality at 100 ug/ml treated for 10 secs before larva infestation measured after 2 days by dipping method; details: 48 h
[2] = tested on: Plutella xylostella; assay: Insecticidal activity against third-instar larval stage of Plutella xylostella (diamondback moth) in cabbage leaves assessed as mortality at 100 ug/ml treated for 10 secs before larva infestation measured after 3 days by dipping method; details: 72 h
[3] = tested on: Plutella xylostella; assay: Insecticidal activity against third-instar larval stage of Plutella xylostella (diamondback moth) in cabbage leaves assessed as mortality at 10 ug/ml treated for 10 secs before larva infestation measured after 3 days by dipping method; details: 72 h
[4] = tested on: Plutella xylostella; assay: Insecticidal activity against third-instar larval stage of Plutella xylostella (diamondback moth) in cabbage leaves assessed as mortality at 10 ug/ml treated for 10 secs before larva infestation measured after 2 days by dipping method; details: 48 h
[5] = tested on: Plutella xylostella; assay: Insecticidal activity against third-instar larval stage of Plutella xylostella (diamondback moth) in cabbage leaves assessed as mortality at 0.1 ug/ml treated for 10 secs before larva infestation measured for 3 days by dipping method; details: 72 h
[6] = tested on: Plutella xylostella; assay: Insecticidal activity against third-instar larval stage of Plutella xylostella (diamondback moth) in cabbage leaves assessed as mortality at 0.5 ug/ml treated for 10 secs before larva infestation measured for 3 days by dipping method; details: 72 h
[7] = tested on: Plutella xylostella; assay: Insecticidal activity against third-instar larval stage of Plutella xylostella (diamondback moth) in cabbage leaves assessed as mortality at 5 ug/ml treated for 10 secs before larva infestation measured for 3 days by dipping method; details: 72 h
[8] = tested on: Plutella xylostella; assay: Insecticidal activity against third-instar larval stage of Plutella xylostella (diamondback moth) in cabbage leaves assessed as mortality treated for 10 secs before larva infestation measured for 3 days by dipping method; details: 72 h
[9] = tested on: Plutella xylostella; assay: Insecticidal activity against third-instar larval stage of Plutella xylostella (diamondback moth) in cabbage leaves assessed as mortality at 1 ug/ml treated for 10 secs before larva infestation measured for 3 days by dipping method; details: 72 h

Row | SMILES | mortality at 100 µg/mL [1] [%] | mortality at 100 µg/mL [2] [%] | mortality at 10 µg/mL [4] [%] | other results
1 | COc1ccc(NC(=O)c2cccc(I)c2C(=O)NC(C)(C)CSC)cc1C(F)(F)F | 5 | 50 |  | 
2 | COc1ccc(C(F)(F)F)cc1NC(=O)c1cccc(I)c1C(=O)NC(C)(C)CS(C)(=O)=O | 0 | 0 |  | 
3 | CC(C)(CS(C)(=O)=O)NC(=O)c1c(I)cccc1C(=O)Nc1cc(C(F)(F)F)ccc1F | 43 | 67 |  | 
4 | CC(C)(C)NC(=O)c1c(I)cccc1C(=O)Nc1cccc(C(F)(F)F)c1 | 100 |  | 50 | mortality at 10 µg/mL [3]: 100%
5 | CC(C)(C)NC(=O)c1c(I)cccc1C(=O)Nc1ccc(Cl)c(C(F)(F)F)c1 | 85 | 100 | 20 | mortality at 10 µg/mL [3]: 70%
6 | COc1ccc(NC(=O)c2cccc(I)c2C(=O)NC(C)(C)C)cc1C(F)(F)F | 0 | 5 |  | 
7 | CC(C)(C)NC(=O)c1c(I)cccc1C(=O)Nc1cc(F)cc(C(F)(F)F)c1 | 14 | 76 |  | 
8 | COc1cc(NC(=O)c2cccc(I)c2C(=O)NC(C)(C)C)cc(C(F)(F)F)c1 | 10 | 10 |  | 
9 | COc1ccc(C(F)(F)F)cc1NC(=O)c1cccc(I)c1C(=O)NC(C)(C)C | 0 | 0 |  | 
10 | CC(C)(C)NC(=O)c1c(I)cccc1C(=O)Nc1cc(C(F)(F)F)ccc1F | 57 | 62 |  | 
11 | CC(C)(CS(C)(=O)=O)NC(=O)c1c(I)cccc1C(=O)Nc1cccc(C(F)(F)F)c1 | 100 |  | 95 | mortality at 10 µg/mL [3]: 100%
12 | CC(C)(CS(C)(=O)=O)NC(=O)c1c(I)cccc1C(=O)Nc1ccc(Cl)c(C(F)(F)F)c1 | 100 |  | 100 | mortality at 0.1 µg/mL [5]: 4.8%; mortality at 0.5 µg/mL [6]: 29%; mortality at 5 µg/mL [7]: 100%; LC50 [8]: 0.98 µg/mL (≈ 1.63 µM); mortality at 1 µg/mL [9]: 52%
13 | CC(C)(CS(C)(=O)=O)NC(=O)c1c(I)cccc1C(=O)Nc1ccc(F)c(C(F)(F)F)c1 | 100 |  | 100 | mortality at 0.1 µg/mL [5]: 0%; mortality at 0.5 µg/mL [6]: 5%; mortality at 5 µg/mL [7]: 100%; mortality at 1 µg/mL [9]: 29%
14 | CC(C)(CS(C)(=O)=O)NC(=O)c1c(I)cccc1C(=O)Nc1ccc(C#N)c(C(F)(F)F)c1 | 57 | 100 | 0 | mortality at 10 µg/mL [3]: 50%
15 | COc1ccc(NC(=O)c2cccc(I)c2C(=O)NC(C)(C)CS(C)(=O)=O)cc1C(F)(F)F | 0 | 0 |  | 
16 | CC(C)(CS(C)(=O)=O)NC(=O)c1c(I)cccc1C(=O)Nc1cc(F)cc(C(F)(F)F)c1 | 100 |  | 57 | mortality at 10 µg/mL [3]: 91%
17 | CC(C)(CS(C)(=O)=O)NC(=O)c1c(I)cccc1C(=O)Nc1cc(C(F)(F)F)cc(C(F)(F)F)c1 | 40 | 90 |  | 
18 | COc1cc(NC(=O)c2cccc(I)c2C(=O)NC(C)(C)CS(C)(=O)=O)cc(C(F)(F)F)c1 | 0 | 0 |  | 
